Experimental data reported in patent publication US11406714B2, “Telodendrimers and nanocarriers and methods of using same” (The Research Foundation for the State University of New York, priority 2013, dated 2022).
“Also recorded” adds a separate entry of the source.

Columns and labels:
[1] = Maximum tolerated dose (MTD) study; assay type: in vivo
Experimental: FIG. 24. An example of body weight lost for an animal treated with DOX loaded PEG^5kCA4-L-Rh4 at different dosage level, as well as the empty micelles for the test of the MTD studies. Among, the 15 mg/Kg dosage was repeated at day 0 and day 4 to study the MTD of multiple dosages.

Raji lymphoma xenograft [2] = test: In vivo cancer treatment; design: species or system nude mice; settings: 10 mg/kg, days 0, 4 and 8, intravenous
Experimental: (§1) Female athymic nude mice (Nu/Nu strain), 6-8 weeks age, were purchased from Harlan. All animals were kept under pathogen-free conditions according to AAALAC (Association for Assessment and Accreditation of Laboratory Animal Care) guidelines and were allowed to acclimatize for at least 4 days prior to any experiments. All animal experiments were performed in compliance with institutional guidelines and according to protocol approved by the Committee for the Humane Use of Animals of State University of New York Upstate Medical University. Subcutaneous tumor xenograft mouse models were established by injecting 1×10^7 HT-29 or raji cancer cells in a 100 μL of mixture of PBS and Matrigel (1:1 v/v) subcutaneously at the right flank in female nude mice.
Subcutaneous Raji lymphoma xenograft mouse model was used to evaluate the therapeutic efficacy of different formulations of DOX. […] Tumor sizes were measured with a digital caliper twice per week. Tumor volume was calculated by the formula (L×W^2)/2, where L is the longest, and W is the shortest in tumor diameters (mm). To compare between groups, relative tumor volume (RTV) was calculated at each measurement time point (where RTV equals the tumor volume at given time point divided by the tumor volume prior to initial treatment). […]

[3] = system: HT-29 colon cancer xenografts; test: In vivo and ex vivo NIRF imaging and biodistribution; design: species or system nude mice
Experimental: as §1
(§2) Nude mice with subcutaneous tumors of an approximate 8 to 10 mm in diameter were subjected to in vivo NIRF optical imaging. At different time points post-injection of DiD and chemodrug (PTX or DOX or GA) co-loaded micelles (the mass ratio of DiD and PTX within nanocarrier was […]), mice were scanned using a IVIS-200 small animal imager at cy5.5 excitation and emission channels. The mice were anaesthetized by isofluorane gas before and during each imaging. After in vivo imaging, animals were euthanized by CO2 overdose after the last in vivo imaging. Tumors and major organs were excised and imaged with the IVIS-200 small animal imager.

Raji lymphoma xenograft [4] = test: as above; design: species or system nude mice; settings: tail vein injection
Experimental: as §1, §2

SMILES | MTD of free DOX [1] [mg/kg] | Tumor response (Raji lymphoma xenograft [2]) | Ex vivo biodistribution of fluorescence signal ([3]; after last in vivo imaging) | In vivo tumor targeting (fluorescence imaging) ([3]; tail vein injection, DiD signal) | Biodistribution of fluorescence signal (Raji lymphoma xenograft [4])
COc1cccc2c1C(=O)c1c(O)c3c(c(O)c1C2=O)C[C@@](O)(C(=O)CO)C[C@@H]3O[C@H]1C[C@H](N)[C@H](O)[C@H](C)O1 [DOX, Doxorubicin] | 10 | the cancer progression was slowed down | – | – | –
CCCCCCCCCCCCCCCCCCN1C(=CC=CC=CC2=[N+](CCCCCCCCCCCCCCCCCC)c3ccccc3C2(C)C)C(C)(C)c2ccccc21.[O-][Cl+3]([O-])([O-])[O-] [DiD, 1,1′-dioctadecyl-3,3,3′,3′-tetramethylindodicarbocyanine perchlorate] | – | – | high uptake in liver, lung and spleen and low uptake in tumor; also recorded: high uptake of fluorescent signal in spleen and lung | nonspecific binding and low tumor uptake | high fluorescent uptake in the liver, lung and spleen and weak signal in the tumor
